Results as given in patent US8772504B2, “Substituted benzoxazole, benzimidazole, oxazolopyridine and imidazopyridine derivatives as gamma secretase modulators” (Janssen Pharmaceuticals, Inc., priority 2009, dated 2014).

Legend:
Aβ42 = assay: In vivo efficacy Method 2: brain soluble Aβ42 by ELISA; design: species or system mouse; conditions: Table 4b, single oral dose, overnight fasted non-transgenic animals, sacrificed after 4 h, soluble fraction of brain homogenates
Text: (§1) To determine whether acute administration of an Aβ42 lowering agent would reduce Aβ42 levels in vivo, non-transgenic rodents, e.g. mice or rats were used. Animals treated with the Aβ42 lowering agent were examined and compared to those untreated or treated with vehicle and brain levels of soluble Aβ42 and total Aβ were quantitated by standard techniques, for example, using ELISA. Treatment periods varied from hours (h) to days and were adjusted based on the results of the Aβ42 lowering once a time course of onset of effect could be established.
(§2) A typical protocol for measuring Aβ42 lowering in vivo is shown but it is only one of many variations that could be used to optimize the levels of detectable Aβ. For example, Aβ42 lowering compounds were formulated in 20% of Captisol® (a sulfobutyl ether of β-cyclodextrin) in water or 20% hydroxypropyl β cyclodextrin. The Aβ42 lowering agents were administered as a single oral dose or by any acceptable route of administration to overnight fasted animals. After 4 h, the animals were sacrificed and Aβ42 levels were analysed.
(§3) Blood was collected by decapitation and exsanguinations in EDTA-treated collection tubes. Blood was centrifuged at 1900 g for 10 minutes (min) at 4° C. and the plasma recovered and flash frozen for later analysis. The brain was removed from the cranium and hindbrain. The cerebellum was removed and the left and right hemisphere were separated. The left hemisphere was stored at −18° C. for quantitative analysis of test compound levels. The right hemisphere was rinsed with phosphate-buffered saline (PBS) buffer and immediately frozen on dry ice and stored at −80° C. until homogenization for biochemical assays.
(§4) Mouse brains from non-transgenic animals were resuspended in 8 volumes of 0.4% DEA (diethylamine)/50 mM NaCl containing protease inhibitors (Roche-11873580001 or 04693159001) per gram of tissue, e.g. for 0.158 g brain, add 1.264 ml of 0.4% DEA. All samples were homogenized in the FastPrep-24 system (MP Biomedicals) using lysing matrix D (MPBio #6913-100) at 6 m/s for 20 seconds. Homogenates were centrifuged at 221.300×g for 50 min. The resulting high speed supernatants were then transferred to fresh eppendorf tubes. Nine parts of supernatant were neutralized with 1 part 0.5 M Tris-HCl pH 6.8 and used to quantify Aβtotal and Aβ42.
(§5) To quantify the amount of Aβtotal and Aβ42 in the soluble fraction of the brain homogenates, Enzyme-Linked-Immunosorbent-Assays were used . Briefly, the standards (a dilution of synthetic Aβ1-40 and Aβ1-42, Bachem) were prepared in 1.5 ml Eppendorf tube in Ultraculture, with final concentrations ranging from 10000 to 0.3 pg/ml. The samples and standards were co-incubated with HRPO-labelled N-terminal antibody for Aβ42 detection and with the biotinylated mid-domain antibody 4G8 for Aβtotal detection. 50 μl of conjugate/sample or conjugate/standards mixtures were then added to the antibody-coated plate (the capture antibodies selectively recognize the C-terminal end of Aβ42, antibody JRF/cAβ42/26, for Aβ42 detection and the N-terminus of Aβ, antibody JRF/rAβ/2, for Aβtotal detection). The plate was allowed to incubate overnight at 4° C. in order to allow formation of the antibody-amyloid complex. Following this incubation and subsequent wash steps the ELISA for Aβ42 quantification was finished by addition of Quanta Blu fluorogenic peroxidase substrate according to the manufacturer's instructions (Pierce Corp., Rockford, Ill.). A reading was performed after 10 to 15 min (excitation 320/emission 420).
In this model at least 20% Aβ42 lowering compared to untreated animals would be advantageous.

Aβtotal = assay: In vivo efficacy Method 2: brain soluble Aβtotal by ELISA; design: species or system mouse; conditions: Table 4b, single oral dose, overnight fasted non-transgenic animals, sacrificed after 4 h, soluble fraction of brain homogenates
Text: as §1, §2, §3, §4, §5
For Aβtotal detection, a Streptavidine-Peroxidase-Conjugate was added, followed 60 min later by an additional wash step and addition of Quanta Blu fluorogenic peroxidase substrate according to the manufacturer's instructions (Pierce Corp., Rockford, Ill.). A reading was performed after 10 to 15 min (excitation 320 nm/emission 420 nm).

Structure (SMILES)	Aβ42 (% Ctrl) _Mean (Aβ42) [% Ctrl]	Aβtotal (% Ctrl) _Mean (Aβtotal) [% Ctrl]
COc1nc(Nc2cccc3c2nc(-c2ccc(F)cc2)n3C)ccc1-n1cnc(C)c1 [Compound 15]	39	82
COc1cc(Nc2cc(C(C)C)nc3c2nc(-c2ccc(F)cc2)n3C)ccc1-n1cnc(C)n1 [Compound 110]	78	106
